Results taken from paper PMC10761696, “Avapritinib-based SAR studies unveil a binding pocket in KIT and PDGFRA” (Nature Communications, 2024).
Values joined by “and” are separate entries in the source; they are usually repeats but may differ in a detail not shown here. Equal entries are not always repeated. Where two headings read alike, the source gives them in different places.

What was measured:
[1] = MDCKII-MDR1 permeability assay; details: dog; for Papp B→A at 2 h, 10 µM: MDCK-MDR1
[2] = tested on: MDR1; experiment: MDCKII-MDR1 permeability assay; details: dog; for recovery at 2 h, 10 µM: MDCKII-MDR1, assay conc. 10; for efflux ratio at 2 h, 10 µM: MDCK-MDR1
[3] = biological target: T1, PDGFRA-D842V (Homo sapiens, UniProt P16234, D842V); experiment: Activity-based HTRF KinEASE assay, PDGFRA-D842V; format: biochemical
T1 construct: purchased Invitrogen PV4203 (lot #2343231B)

[4] = biological target: KIT-D816H (Homo sapiens, UniProt P10721, D816H); experiment: Activity-based HTRF KinEASE assay, KIT-D816H; format: biochemical
[5] = tested on: ZR-75-1; experiment: CellTiter-Glo (CTG) EC50, ZR-75-1 breast cancer control cell line; format: cell-based, human
Protocol: (§1) Cell line authenticity was confirmed by STR analysis at Eurofins Genomics. All cell lines were tested regularly for mycoplasma contamination using the Mycoplasmacheck Service at Eurofins Genomics. […] Following incubation for 24 h in a humidified atmosphere at 37 °C and 5% CO2, cells were treated with inhibitors in serial dilutions ranging from 30 µM down to 0.1 nM using an Echo650 acoustic liquid handler (Beckman Coulter). Cell viability was analyzed on day 5 using the CellTiter-Glo® assay (Promega) using 500 ms integration time. The obtained data were normalized to the plate positive control (30 µM staurosporine) and negative control (DMSO) and subsequently analyzed and fitted with the Quattro Software Suite (Quattro Research) using a four-parameter logistic model. As quality control, the Z’-factor was calculated from 16 positive and negative control values. Only assay results showing a Z’-factor ≥0.5 were used for further analysis. All experimental points were measured in duplicates for each plate and were independently replicated in at least three plates.

[6] = tested on: MDA-MB-175VII; experiment: CellTiter-Glo (CTG) EC50, MDA-MB-175VII breast cancer control cell line; format: cell-based, human
Protocol: as §1

[7] = tested on: GIST-T1; experiment: CellTiter-Glo (CTG) GR50, GIST-T1; details: Homo sapiens
[8] = tested on: T1-T670I; experiment: CellTiter-Glo (CTG) GR50, T1-T670I; details: Homo sapiens
[9] = tested on: T1-V654A; experiment: CellTiter-Glo (CTG) GR50, T1-V654A; details: Homo sapiens
[10] = tested on: T1-a-5258; experiment: CellTiter-Glo (CTG) GR50, T1-a-5258; details: Homo sapiens
[11] = tested on: SK-LMS-1; experiment: CellTiter-Glo (CTG) GR50, SK-LMS-1 control cell line; details: for CTG GR50 SK-LMS-1: mean ± s.d., n = 3, control cell line; for CTG GR50 SK-LMS-1, single determinations: raw data of Supp. Tab. 2, independent experiments, unit from Supp. Tab. 2
[12] = tested on: GIST-48B; experiment: CellTiter-Glo (CTG) GR50, GIST-48B control cell line (off-target toxicity); details: ratio of GR50 values; for GIST-48B/D842V: source data sheet
[13] = MDCK-MDR1, Papp A->B, MDCKII-MDR1, assay conc. 10, apical to basolateral
[14] = mean ± s.d., n ≥ 3, ATP at KM (14 µM), read-out: HTRF IC50 PDGFRA-D842V
[15] = raw data of Table 1, independent experiments 1-3, unit from Table 1, read-out: HTRF IC50 PDGFRA-D842V, single determinations
[16] = mean ± s.d., n ≥ 3, ATP at KM (12 µM), read-out: HTRF IC50 KIT-D816H
[17] = raw data of Table 1, independent experiments, unit from Table 1, read-out: HTRF IC50 KIT-D816H, single determinations
[18] = Homo sapiens, ZR-75-1, mean ± s.d., n = 3, control cell line, read-out: CTG EC50 ZR-75-1
[19] = Homo sapiens, ZR-75-1, raw data of Supp. Tab. 2, independent experiments, unit from Supp. Tab. 2, read-out: CTG EC50 ZR-75-1, single determinations
[20] = Homo sapiens, MDA-MB-175-VII, read-out: CTG EC50 MDA-MB-175VII, mean ± s.d., n = 3, control cell line
[21] = Homo sapiens, MDA-MB-175-VII, read-out: CTG EC50 MDA-MB-175VII, single determinations, raw data of Supp. Tab. 2, independent experiments, unit from Supp. Tab. 2
[22] = GISTT1, read-out: KIT CTG GR50 GIST-T1, mean ± s.d., n ≥ 3, GR50 half-maximal growth inhibition rate
[23] = read-out: CTG GR50 T1-T670I, single determinations, raw data of Supp. Tab. 1, independent experiments, unit from Supp. Tab. 1
[24] = read-out: KIT CTG GR50 T1-T670I, mean ± s.d., n ≥ 3
[25] = read-out: CTG GR50 T1-V654A, single determinations, raw data of Supp. Tab. 1, independent experiments, unit from Supp. Tab. 1
[26] = read-out: KIT CTG GR50 T1-V654A, mean ± s.d., n ≥ 3 (* n = 2 for ava)
[27] = read-out: CTG GR50 T1-a-5258, single determinations, raw data of Supp. Tab. 1, independent experiments, unit from Supp. Tab. 1
[28] = read-out: PDGFRA CTG GR50 T1-a-5258, mean ± s.d., n ≥ 3, triple mutant D842V, G652E, V658A
[29] = GISTT1, read-out: CTG GR50 GIST-T1, single determinations, raw data of Table 1, independent experiments, unit from Table 1
[30] = MDCK-MDR1, MDCKII-MDR1 (Papp A→B), at 10 µM, 2 h, 37 °C, unit inferred

Chain of KIT-D816H (P10721 26-976 D816H): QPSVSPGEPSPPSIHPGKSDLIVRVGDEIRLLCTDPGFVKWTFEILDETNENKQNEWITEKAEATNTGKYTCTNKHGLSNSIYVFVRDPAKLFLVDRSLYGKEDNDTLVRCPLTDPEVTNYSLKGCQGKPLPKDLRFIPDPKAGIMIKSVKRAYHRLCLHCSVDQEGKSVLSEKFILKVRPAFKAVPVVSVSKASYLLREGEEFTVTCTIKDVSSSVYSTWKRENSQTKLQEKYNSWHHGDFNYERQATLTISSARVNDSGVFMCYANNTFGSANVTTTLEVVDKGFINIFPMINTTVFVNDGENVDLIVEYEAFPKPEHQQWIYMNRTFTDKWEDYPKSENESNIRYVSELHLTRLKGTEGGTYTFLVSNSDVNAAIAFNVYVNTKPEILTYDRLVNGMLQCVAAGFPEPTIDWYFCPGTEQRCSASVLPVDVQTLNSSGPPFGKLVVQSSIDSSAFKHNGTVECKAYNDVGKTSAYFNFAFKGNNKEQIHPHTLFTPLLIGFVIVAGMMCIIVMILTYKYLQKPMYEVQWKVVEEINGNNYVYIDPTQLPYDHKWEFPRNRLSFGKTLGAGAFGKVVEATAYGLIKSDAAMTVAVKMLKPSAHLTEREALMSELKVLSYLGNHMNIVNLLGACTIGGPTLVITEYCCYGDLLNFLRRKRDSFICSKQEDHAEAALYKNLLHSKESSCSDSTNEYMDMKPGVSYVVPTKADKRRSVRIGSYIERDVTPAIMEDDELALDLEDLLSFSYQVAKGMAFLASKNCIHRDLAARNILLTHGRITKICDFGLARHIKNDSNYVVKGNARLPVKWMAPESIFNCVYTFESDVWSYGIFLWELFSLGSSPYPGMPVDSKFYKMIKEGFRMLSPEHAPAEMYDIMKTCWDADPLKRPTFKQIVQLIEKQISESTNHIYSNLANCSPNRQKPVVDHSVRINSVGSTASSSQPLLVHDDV
T1 sequence (P16234 24-1089 D842V): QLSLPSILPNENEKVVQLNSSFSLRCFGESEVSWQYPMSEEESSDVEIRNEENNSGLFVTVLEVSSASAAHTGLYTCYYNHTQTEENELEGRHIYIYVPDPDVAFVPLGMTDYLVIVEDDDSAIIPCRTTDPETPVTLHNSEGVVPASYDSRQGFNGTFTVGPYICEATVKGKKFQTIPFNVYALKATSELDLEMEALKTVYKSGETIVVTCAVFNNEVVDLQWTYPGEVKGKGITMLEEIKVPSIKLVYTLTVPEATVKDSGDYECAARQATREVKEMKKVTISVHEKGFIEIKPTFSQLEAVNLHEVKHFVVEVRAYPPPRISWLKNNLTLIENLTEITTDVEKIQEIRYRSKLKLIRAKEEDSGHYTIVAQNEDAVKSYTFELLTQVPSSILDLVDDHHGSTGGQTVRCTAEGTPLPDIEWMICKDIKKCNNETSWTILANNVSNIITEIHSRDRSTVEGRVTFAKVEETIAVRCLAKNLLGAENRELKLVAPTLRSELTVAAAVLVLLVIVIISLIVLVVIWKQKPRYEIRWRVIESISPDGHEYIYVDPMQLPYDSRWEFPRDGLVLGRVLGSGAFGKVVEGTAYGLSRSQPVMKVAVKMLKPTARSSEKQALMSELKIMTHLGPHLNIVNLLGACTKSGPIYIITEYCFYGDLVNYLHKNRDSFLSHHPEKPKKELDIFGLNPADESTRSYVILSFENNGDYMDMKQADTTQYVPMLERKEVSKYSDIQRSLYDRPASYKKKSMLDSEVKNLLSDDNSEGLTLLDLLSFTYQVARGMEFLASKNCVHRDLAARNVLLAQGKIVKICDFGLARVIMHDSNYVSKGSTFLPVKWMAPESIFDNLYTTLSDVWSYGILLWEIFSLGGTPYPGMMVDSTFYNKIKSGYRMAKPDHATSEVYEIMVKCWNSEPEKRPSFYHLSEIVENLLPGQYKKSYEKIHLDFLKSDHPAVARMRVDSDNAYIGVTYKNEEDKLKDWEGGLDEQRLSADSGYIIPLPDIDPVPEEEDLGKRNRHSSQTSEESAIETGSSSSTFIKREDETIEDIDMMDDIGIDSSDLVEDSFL

SMILES	IC50 [3, 14]	IC50 [3, 15]	IC50 [4, 16]	IC50 [4, 17]	EC50 [5, 18]	EC50 [5, 19]	EC50 [6, 20]	EC50 [6, 21]	GI50 [7, 22]	GI50 [8, 23]	GI50 [8, 24]	GI50 [9, 25]	GI50 [9, 26]	GI50 [10, 27]	GI50 [10, 28]	CTG GR50 SK-LMS-1 [11]	ratio GIST-48B/ T1-a-D842V [12]	GIST-48B/D842V [12]	GI50 [7, 29]	CTG GR50 SK-LMS-1, single determinations [11]	also measured
Cn1cc(-c2cc3c(N4CCN(c5ncc(C(C)(N)c6ccc(F)cc6)cn5)CC4)ncnn3c2)cn1 (stereo not shown) [1 (avapritinib)]	–	–	–	–	–	–	–	–	–	–	–	–	–	–	–	–	–	–	–	–	Papp A→B at 2 h, 10 µM [1, 13]: 12.5 ×10⁻⁶ cm/s; recovery at 2 h, 10 µM ([2]; MDCK-MDR1, Recovery A->B): 87.6%; recovery at 2 h, 10 µM ([2]; MDCK-MDR1, Recovery B->A): 150%
Cn1cc(-c2cc3c(Cl)ncnn3c2)cn1 [Compound 2, 4-chloro-6-(1-methyl-1H-pyrazol-4-yl)pyrrolo[2,1-f][1,2,4]triazine]	7340 nM	4470 nM and 9300 nM and 8260 nM	9300 ± 1210 nM	7.91 µM and 10 µM (2×)	6480 nM	7510 nM	9190 nM	10000 nM	6730 ± 2070 nM	3550 nM	2870 ± 510 nM	6090 nM	7560 ± 991 nM	1380 nM	1340 ± 70 nM	7.713 ± 3.929 µM and 7.713 µM	3	3	–	–	EC50 ([5]; raw data of Supp. Tab. 2, independent experiments, unit from Supp. Tab. 2, read-out: CTG EC50 ZR-75-1, single determinations): 7140 nM and 4800 nM; EC50 ([6]; read-out: CTG EC50 MDA-MB-175VII, single determinations, raw data of Supp. Tab. 2, independent experiments, unit from Supp. Tab. 2): 7570 nM
Cn1cc(-c2cc3c(N4CCNCC4)ncnn3c2)cn1 [Compound 3]	5590 ± 2560 nM	2500 nM and 8760 nM and 5500 nM	1540 ± 852 nM	1400 nM and 766 nM and 2450 nM	≥ 10000 nM	≥ 10000 nM	≥ 10000 nM	≥ 10000 nM	≥ 10000 nM	–	–	–	–	–	–	–	1	1	≥ 10000 nM	≥10 µM	–
Cn1cc(-c2cc3c(N4CCN(c5ncccn5)CC4)ncnn3c2)cn1 [Compound 4]	35 ± 13 nM	49.6 nM and 36.2 nM and 18.5 nM	76 ± 45 nM	27.5 nM and 82.1 nM and 118 nM	≥ 10000 nM	≥ 10000 nM	≥ 10000 nM	≥ 10000 nM	5270 ± 509 nM	≥ 10000 nM	≥ 10000 nM	≥ 10000 nM	≥ 10000 nM	≥ 10000 nM	≥ 10000 nM	–	5	5.3	5800 nM	≥10 µM	fold increase in potency with respect to PDGFRA-D842V ([3]; 4 (pyrimidine added) compared with 3): 160 fold
Cn1cc(-c2cc3c(N4CCN(c5ncc(Cc6ccccc6)cn5)CC4)ncnn3c2)cn1 [Compound 5]	–	–	–	–	≥ 10000 nM	≥ 10000 nM	≥ 10000 nM	≥ 10000 nM	1480 ± 1200 nM	≥ 10000 nM	≥ 10000 nM	≥ 10000 nM	≥ 10000 nM	6600 nM	8260 ± 1700 nM	–	–	–	–	≥10 µM	–
Cn1cc(-c2cc3c(N4CC5(CN(c6ncc(Cc7ccccc7)cn6)C5)C4)ncnn3c2)cn1 [Compound 6]	7350 ± 884 nM	6110 nM and 7810 nM and 8130 nM	2160 ± 167 nM	2280 nM and 2040 nM	≥ 10000 nM	≥ 10000 nM	≥ 10000 nM	≥ 10000 nM	≥ 10000 nM	≥ 10000 nM	≥ 10000 nM	≥ 10000 nM	≥ 10000 nM	8790 nM	9530 ± 650 nM	–	1	1	≥ 10000 nM	≥10 µM	–
CN(C)[C@@](C)(c1ccc(F)cc1)c1cnc(N2CCN(c3ncnn4cc(-c5cnn(C)c5)cc34)CC2)nc1 [Compound 8]	0.4 ± 0.1 nM	0.28 nM and 0.38 nM and 0.56 nM	2.3 ± 1.7 nM	3.5 nM and 2.4 nM and 1.1 nM	≥ 10000 nM	≥ 10000 nM	≥ 10000 nM	≥ 10000 nM	254 ± 74 nM	2770 nM	2560 ± 258 nM	999 nM	1170 ± 264 nM	1400 nM	1660 ± 250 nM	8.631 ± 2.371 µM and 8.631 µM	33	33	350 nM	5.894 µM and 10 µM	fold decrease in potency at the biochemical level compared to avapritinib ([3]; HTRF IC50, PDGFRA-D842V and KIT-D816H): 3–5 fold
CCN[C@@](C)(c1ccc(F)cc1)c1cnc(N2CCN(c3ncnn4cc(-c5cnn(C)c5)cc34)CC2)nc1 [Compound 9]	< 0.1 nM	< 0.1 nM	0.4 ± 0.2 nM	0.26 nM and 0.54 nM and 0.27 nM	≥ 10000 nM	≥ 10000 nM	≥ 10000 nM	≥ 10000 nM	92 ± 16 nM	1330 nM	1500 ± 223 nM	532 nM	575 ± 159 nM	1160 nM	1330 ± 220 nM	9.041 ± 1.661 µM and 9.041 µM	155	155	109 nM	7.123 µM and 10 µM	–
CC(=O)N[C@@](C)(c1ccc(F)cc1)c1cnc(N2CCN(c3ncnn4cc(-c5cnn(C)c5)cc34)CC2)nc1 [Compound 10]	< 0.1 nM	< 0.1 nM	0.5 ± 0.1 nM	0.38 nM and 0.43 nM and 0.65 nM	≥ 10000 nM	≥ 10000 nM	≥ 10000 nM	≥ 10000 nM	39 ± 6 nM	376 nM	386 ± 39 nM	268 nM	293 ± 83 nM	1570 nM	2060 ± 430 nM	8.787 ± 2.101 µM and 8.787 µM	186	186	44 nM	6.361 µM and 10 µM	Papp B→A at 2 h, 10 µM [1]: 5.43 ×10⁻⁶ cm/s; Papp A→B at 2 h, 10 µM [1, 30]: 11.3 ×10⁻⁶ cm/s; Papp A→B at 2 h, 10 µM [1, 13]: 11.3 ×10⁻⁶ cm/s; efflux ratio at 2 h, 10 µM [2]: 0.48; recovery at 2 h, 10 µM ([2]; MDCK-MDR1, Recovery A->B): 44.1%; recovery at 2 h, 10 µM ([2]; MDCK-MDR1, Recovery B->A): 48.4%
C=CC(=O)N[C@@](C)(c1ccc(F)cc1)c1cnc(N2CCN(c3ncnn4cc(-c5cnn(C)c5)cc34)CC2)nc1 [Compound 11]	< 0.1 nM	< 0.1 nM	0.5 ± 0.2 nM	0.7 nM and 0.54 nM and 0.37 nM	≥ 10000 nM	≥ 10000 nM	≥ 10000 nM	≥ 10000 nM	39 ± 7 nM	402 nM	413 ± 44 nM	302 nM	347 ± 108 nM	2970 nM	3380 ± 360 nM	6.459 ± 3.067 µM and 6.459 µM	144	144	46 nM	–	Papp B→A at 2 h, 10 µM [1]: 1.99 ×10⁻⁶ cm/s; Papp A→B at 2 h, 10 µM [1, 30]: 10.1 ×10⁻⁶ cm/s; efflux ratio at 2 h, 10 µM [2]: 0.2; recovery at 2 h, 10 µM ([2]; MDCK-MDR1, Recovery A->B): 34.2%; recovery at 2 h, 10 µM ([2]; MDCK-MDR1, Recovery B->A): 38.9%
